In paper PMC2953536 (Angewandte Chemie (International ed. in English), 2010) one finds IC50 data, which are given here for one compound.

One test concerns the target MMP-9 (Homo sapiens, UniProt P14780). Kind of test: Fluorescence-based MMP inhibition assay, MMP-9. In kind it is biochemical. The conditions noted are these: inhibitor, MMP-9, fluorescence based assay, average of two experiments.
The target of a further test is MMP-12 (Homo sapiens, UniProt P39900). Kind of test: Fluorescence-based MMP inhibition assay, MMP-12. The format is biochemical. The conditions noted are these: MMP-12, fluorescence based assay, average of two experiments.
Chain of MMP-12 (P39900 106-470, species assumed): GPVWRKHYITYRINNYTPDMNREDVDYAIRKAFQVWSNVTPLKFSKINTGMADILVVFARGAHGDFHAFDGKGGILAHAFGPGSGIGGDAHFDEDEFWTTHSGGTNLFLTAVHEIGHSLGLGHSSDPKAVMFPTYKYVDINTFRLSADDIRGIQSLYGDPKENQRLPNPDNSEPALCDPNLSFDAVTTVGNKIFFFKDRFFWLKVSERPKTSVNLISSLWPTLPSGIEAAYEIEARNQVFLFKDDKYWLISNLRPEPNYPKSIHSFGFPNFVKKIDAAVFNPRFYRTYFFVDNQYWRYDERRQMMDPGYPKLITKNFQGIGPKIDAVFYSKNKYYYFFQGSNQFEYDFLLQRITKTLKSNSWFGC

Chain of MMP-9 (P14780 94-707, species assumed): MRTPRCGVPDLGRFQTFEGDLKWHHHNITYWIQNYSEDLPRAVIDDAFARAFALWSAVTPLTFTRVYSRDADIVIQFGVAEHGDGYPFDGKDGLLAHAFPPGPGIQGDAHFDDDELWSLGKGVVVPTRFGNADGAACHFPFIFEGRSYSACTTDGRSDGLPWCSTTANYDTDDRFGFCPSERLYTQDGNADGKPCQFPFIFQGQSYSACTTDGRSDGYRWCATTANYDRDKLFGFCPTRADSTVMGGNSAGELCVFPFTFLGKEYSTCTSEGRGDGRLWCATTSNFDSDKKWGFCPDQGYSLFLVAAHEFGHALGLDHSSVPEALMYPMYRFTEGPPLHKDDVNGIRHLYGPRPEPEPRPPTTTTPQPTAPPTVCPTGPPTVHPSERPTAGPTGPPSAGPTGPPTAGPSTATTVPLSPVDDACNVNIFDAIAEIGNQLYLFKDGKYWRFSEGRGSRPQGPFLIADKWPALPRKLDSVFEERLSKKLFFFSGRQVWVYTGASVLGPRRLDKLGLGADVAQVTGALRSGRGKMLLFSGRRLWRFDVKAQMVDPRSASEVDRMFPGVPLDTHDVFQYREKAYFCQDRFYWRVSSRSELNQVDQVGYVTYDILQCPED

Consider `O=C(NCc1ccc(-c2ccccc2)cc1)c1cccc(=O)n1O` [1,2-HOPO-2], for which the IC50 was determined as 6.1 µM against MMP-9 and 0.053 µM on MMP-12.

Usually IC50 stands for the concentration that gives 50% inhibition.
